Experimental data published in US7279321B2, “Methods for increasing the resistance of a host cell to aromatic carboxylic acids” (priority 2003, dated 2007).
In brackets after ≈: the same amount, converted by molar mass.

How the values were obtained:
Format in all cases: cell-based
E. coli MG1655 (yhcP+) = assay: microbe, parasite or virus in culture; conditions: for MIC, MG1655 (yhcP+): 16 to 18 hours at 37° C., 0.01% tetrazolium violet; for Rank Diff: score of pigment color for MG1655 at the MIC for DPD2444 (0 = no color, 4 = full purple color); for MIC: Escherichia coli, MG1655, read-out: MIC, MG1655 (yhcP+)
Procedure: (§1) Additional compounds were tested for growth inhibition of E. coli MG1655 (yhcP^+) and DPD2444 (yhcP^−) in Vogel-Bonner medium with glucose as the carbon source and with 0.01% tetrazolium violet added as an indicator of viability. A series of two-fold dilutions of each chemical was made to the wells of a clear 96-well microplate in 50 μl volume. To these wells was added 50 μl of an overnight culture in Vogel Bonner medium with glucose as a carbon source of either MG1655 or DPD2444 that had been previously diluted 500-fold into fresh medium. The plates were incubated at 37° C. without shaking for 16 to 18 hours. The purple color in each well was visually scored. A score of 4+ indicated full purple color equivalent to a no chemical control well. Scores of 3+, 2+, or 1+ indicated decreasing amounts of purple color. A score of − indicated the complete absence of color. The MIC was defined as the lowest tested concentration that gave complete absence of color. The rank of difference between strains was defined as the score of pigment color for E. coli MG1655 in wells containing the concentration of a given chemical at the MIC for DPD24444. When MG1655 had no color, the score was 0. When MG 1655 was scored at 1+, the score was 1, when scored at 2+, the score was 2, etc.

E. coli DPD2444 (yhcP−) = assay: microbe, parasite or virus in culture; conditions: for MIC, DPD2444 (yhcP−): 16 to 18 hours at 37° C., 0.01% tetrazolium violet; for Fold Diff: MIC MG1655 versus MIC DPD2444; for defined as substrate of the YhcP efflux pump by this genetic test: MIC difference at least 2-fold and rank at least 2; for MIC: Escherichia coli, read-out: MIC, DPD2444 (yhcP−)
Procedure: as §1

[1] = test system: E. coli strain DPD3313 (MG1655 with pTrcHis2TOPO®/lacZ); assay: pHCA MIC, 2-fold dilutions, Vogel-Bonner medium with 0.4% glucose; conditions: Escherichia coli, no IPTG, overnight at 37° C.
Procedure: (§2) The pHCA MICs for E. coli strains DPD3313 and DPD3314 were determined. […] IPTG was not added to the medium because the trc promoter has substantial activity in its absence.

[2] = test system: E. coli strain DPD3314 (MG1655 with pDEW668, multicopy yhcRQP); assay: as above
Procedure: as §2

[3] = test system: E. coli strain DPD4055 (MG1655 with pTrcHis2TOPO®/lacZ); assay: growth and CFU/ml in defined medium containing pHCA
Procedure: (§3) The plasmid pDEW668 (described in Example 2) that carries the E. coli yhcRQP pHCA efflux system was moved by transformation into E. coli strain MG1655 obtained from the American Type Culture Collection, Manassas, Va. (ATCC #700926. lot # 2660700) to form strain DPD4057. For a control, plasmid pTrcHis2TOPO®/lacZ was also put into the same host strain, making strain DPD4055. E. coli strains DPD4055 and DPD4057 were grown overnight at 37° C. in a defined medium made with 4 g/l (NH4)2SO4, 1.26 g/l KH2PO4, 2.42 g/l K2HPO4, 0.5 g/l MgSO4.7H2O, 30 mM MOPSO, pH 7.0, 1 mg/l thiamin, 50 mg/l citric acid, 7.5 mg/l CaCl2.2H2O, 25 mg/l FeSO4.7H2O, 1.95 mg/l ZnSO4.7H2O, 1.9 mg/l CuSO4.5H2O, 1.0 mg/l CoCl2.6H2O, 1.5 mg/l MnCl2.4H2O, 7.5 g/l glucose, and 25 μg/ml ampicillin. The next day, tubes with 1.0 ml of the same medium containing 7.5, 5.0, 3.3, 2.2, 1.5, or 0 g/l pHCA were inoculated with 10 μl of the overnight cultures. These tubes were grown at 37° C. on a roller drum in the dark for 1 to 2 days. At 21 hours after inoculation, the tube with 5.0 g/l pHCA inoculated with DPD4057 had visible growth. In contrast, strain DPD4055 had visible growth at 2.2 g/l pHCA, but not higher.
(§4) At 48 hours of incubation, the CFU/ml of the cultures growing in the presence of 7.5 g/l pHCA was determined by plating dilutions onto LB plates. Strain DPD4055 had 2×10^2 CFU/ml. Strain DPD4057 had 8×10^7 CFU/ml. The inoculum for each culture was 2×10^7 CFU/ml. […] In contrast, the culture carrying multicopy yhcRQP increased in CFU/ml.

[4] = test system: E. coli strain DPD4057 (MG1655 with pDEW668, multicopy yhcRQP); assay: as above
Procedure: as §3, §4

[5] = test system: E. coli strain DPD2444 (yhcP::TN<Kan>); assay: MIC, 2-fold dilutions, Vogel-Bonner medium with 0.4% glucose; conditions: Escherichia coli, read-out: MIC for pHCA
From the text: (§5) The yhcP::TN<Kan> was introduced into E. coli strain MG1655 (obtained from Prof. Douglas Berg, Washington University School of Medicine, St. Louis, […].) by P1clr100 Cm mediated transduction to kanamycin resistance using phage lysates of E. coli strain DPD2443. One of the resultant kanamycin resistant transductants was named DPD2444.

E. coli strain MG1655 = assay: as above; conditions: Escherichia coli, overnight at 37° C., read-out: MIC for pHCA
From the text: as §5

[6] = test system: yhcP gene (co-transcribed with yhcQ and yhcR); assay: expression of yhcP upon treatment of E. coli cells with aromatic carboxylic acids
[7] = test system: E. coli strain DPD2444 (yhcP−, strain 16) compared with MG1655 (yhcP+, strain 14); assay: Phenotype MicroArray chemical sensitivity test (Biolog)
Procedure: To further define substrates of this efflux system, other molecules were tested with this genetic test. […] E. coli strains DPD2444 (yhcP^−) and MG1655 (yhcP^+) were tested for inhibition by a large number of chemicals at Biolog Inc. (Hayward, Calif.) using the Phenotype MicroArray™ 1-20. The basis of this technology has been described in a recent publication (Bochner et al., Genome Res., 11:1246-1255 (2001)). The chemical sensitivity test was done with 240 compounds at 4 concentrations each. These chemicals included aromatic and heterocyclic molecules, such as acriflavin, dichloro-8-hydroxyquinoline, 9-aminoacridine, fusaric acid, salicylic acid, phenylethanol, o-cresol, m-cresol, p-cresol, pentachlorophenol, coumarin, DL 3-phenyl lactic acid, and cinnamic acid. Also included were numerous antibiotics and other antimicrobial compounds, including several weak acids and other compounds that would disrupt proton flux. Cinnamic acid was the only compound of the 240 tested for which strain DPD2444 was hypersensitive as compared with MG1655. The report regarding the increased sensitivities of strain DPD2444 (strain 16) compared with MG1655 (strain 14) is quoted below in Table 6.

SMILES | MIC, MG1655 (yhcP+) (E. coli MG1655 (yhcP+)) | Rank Diff (E. coli MG1655 (yhcP+)) | MIC, DPD2444 (yhcP−) (E. coli DPD2444 (yhcP−)) | Fold Diff (E. coli DPD2444 (yhcP−)) | MIC (E. coli MG1655 (yhcP+)) [mM] | MIC (E. coli DPD2444 (yhcP−)) [mM] | also measured
O=C(O)C=Cc1ccccc1O [2-hydroxycinnamate] | 20 mM (≈ 3280 µg/mL) | 2 | 10 mM (≈ 1640 µg/mL) | 2 |  |  | defined as substrate of the YhcP efflux pump by this genetic test (E. coli DPD2444 (yhcP−)): substrates of the YhcP efflux pump
O=C(O)c1cccc(O)c1O [2,3-dihydroxybenzoic acid] |  | 0 |  | 1 | 10 (≈ 1540 µg/mL) | 10 (≈ 1540 µg/mL) | 
O=C(O)c1ccccc1 [Benzoate] | 25 mM (≈ 3050 µg/mL) | 0 | 25 mM (≈ 3050 µg/mL) | 1 |  |  | 
O=C(O)c1ccccc1-c1ccccc1 [2-biphenylcarboxylic acid] |  | 0 |  | 1 | 2.5 (≈ 496 µg/mL) | 2.5 (≈ 496 µg/mL) | 
Oc1cccc2c(O)cccc12 [1,5-dihydroxynaphthalene] |  | 1 |  | 2 | 0.5 (≈ 80.1 µg/mL) | 0.25 (≈ 40 µg/mL) | 
O=C(O)c1ccccc1O [Salicylate] | 100 mM (≈ 13800 µg/mL) | 0 | 100 mM (≈ 13800 µg/mL) | 1 |  |  | 
O=C(O)c1ccc2cc(O)ccc2c1 [6-hydroxy-2-naphthoic acid] |  | 3 |  | 8 | 20 (≈ 3760 µg/mL) | 2.5 (≈ 470 µg/mL) | defined as substrate of the YhcP efflux pump by this genetic test (E. coli DPD2444 (yhcP−)): substrates of the YhcP efflux pump
O=C(O)c1cc2ccccc2cc1O [3-hydroxy-2-naphthoic acid] |  | 0 |  | 1 | 1.2 (≈ 226 µg/mL) | 1.2 (≈ 226 µg/mL) | 
O=C(O)c1ccc(C(=O)O)c2ccccc12 [1,4-naphthalenedicarboxyylic acid] | 10 mM (≈ 2160 µg/mL) | 0 | 10 mM (≈ 2160 µg/mL) | 1 |  |  | 
O=C(O)c1ccc2ccccc2c1 [2-naphthoic acid] |  | 1 |  | 2 | 20 (≈ 3440 µg/mL) | 10 (≈ 1720 µg/mL) | 
O=C(O)C=Cc1ccc(O)cc1 [pHCA, para-hydroxycinnamic acid] |  | 2 |  | 4 | 40 (≈ 6570 µg/mL) | 10 (≈ 1640 µg/mL) | defined as substrate of the YhcP efflux pump by this genetic test (E. coli DPD2444 (yhcP−)): substrates of the YhcP efflux pump; MIC [1]: 50 mM (≈ 8210 µg/mL); increased resistance to pHCA by multicopy expression of the yhcRQP operon ([2]; DPD3314 versus DPD3313): two-fold; MIC ([2]; Escherichia coli, MG1655, read-out: MIC for pHCA): 100 mM (≈ 16400 µg/mL); effect of pHCA on the strain without the multicopy yhcRQP genes (in words) ([3]; 7.5 g/l pHCA, 48 hours): bactericidal effect; CFU/ml of culture in the presence of pHCA ([3]; 7.5 g/l pHCA, 48 hours, DPD4055, inoculum 2×10^7 CFU/ml): 2×10^2 CFU/ml; pHCA concentration with visible growth, but not higher ([3]; 21 hours after inoculation, defined medium, 37° C., DPD4055, tested 7.5, 5.0, 3.3, 2.2, 1.5 g/l): 2.2 g/l; CFU/ml of culture in the presence of pHCA ([4]; 7.5 g/l pHCA, 48 hours, DPD4057, inoculum 2×10^7 CFU/ml): 8×10^7 CFU/ml; pHCA concentration with visible growth ([4]; 21 hours after inoculation, defined medium, 37° C., DPD4057, tested 7.5, 5.0, 3.3, 2.2, 1.5 g/l): 5.0 g/l; fold improvement in pHCA tolerance by multicopy expression of yhcRQP ([4]; DPD4057 versus DPD4055, 21 hours): 2.3 fold; MIC [5]: 12 mM (≈ 1970 µg/mL); MIC (E. coli strain MG1655): 50 mM (≈ 8210 µg/mL); expression of the yhcP gene upon treatment of E. coli cells [6]: highly upregulated
Oc1ccc2ccc(O)cc2c1 [2,7-dihydroxynaphthalene] |  | 1 |  | 2 | 0.62 (≈ 99.3 µg/mL) | 0.31 (≈ 49.7 µg/mL) | 
O=C(O)c1cc2ccccc2cc1C(=O)O [2,3-naphthalenedicarboxylic acid] |  | 0 |  | 1 | 80 (≈ 17300 µg/mL) | 80 (≈ 17300 µg/mL) | 
COC(=O)c1ccc(O)cc1 [Methyl paraben] |  | 0 |  | 1 | 3.8 (≈ 578 µg/mL) | 3.8 (≈ 578 µg/mL) | 
C=C1CCOC1=O [Tulipalin] | 0.008% | 0 | 0.008% | 1 |  |  | 
O=C(O)C=Cc1ccc(O)c(O)c1 [3,4-dihydroxycinnamate] | 0.62 mM (≈ 112 µg/mL) | 0 | 0.62 mM (≈ 112 µg/mL) | 1 |  |  | 
Oc1ccc2c(O)cccc2c1 [1,6-dihydroxynaphthalene] |  | 1 |  | 2 | 0.5 (≈ 80.1 µg/mL) | 0.25 (≈ 40 µg/mL) | 
COc1cc(C=CC(=O)O)cc(OC)c1O [3,5-dimethoxy-4-hydroxycinnamate] | 10 mM (≈ 2240 µg/mL) | 0 | 10 mM (≈ 2240 µg/mL) | 1 |  |  | 
O=C(O)C=Cc1ccccc1 [CA, cinnamic acid] |  | 1 |  | 2 | 20 (≈ 2960 µg/mL) | 10 (≈ 1480 µg/mL) | difference in growth inhibition of the two strains (in words) (E. coli DPD2444 (yhcP−); MG1655 versus DPD2444): slight difference; sensitivity of strain DPD2444 as compared with MG1655 (in words) ([7]; 240 compounds at 4 concentrations each): hypersensitive; Phenotypes Lost - Slower Growth/Sensitivity: Difference ([7]; PM19, well C 11, Strain 16 (DPD2444) vs Strain 14 (MG1655)): −83; expression of the yhcP gene upon treatment of E. coli cells [6]: highly upregulated
COc1cccc(OC)c1O [2,6-dimethoxyphenol] |  | 0 |  | 1 | 5 (≈ 771 µg/mL) | 5 (≈ 771 µg/mL) | 
C[S+](C)[O-] [dimethyl sulfoxide (DMSO), dimethyl sulfoxide] | 20% | 0 | 20% | 1 |  |  | 
O=C(O)c1ccc2ccccc2c1O [1-hydroxy-2-naphthoic acid] |  | 0 |  | 1 | 0.62 (≈ 117 µg/mL) | 0.62 (≈ 117 µg/mL) | 
O=C(O)c1cccc2ccccc12 [1-naphthoic acid] |  | 0 |  | 1 | 2.5 (≈ 430 µg/mL) | 2.5 (≈ 430 µg/mL) | 
